Consider 4 compounds from US11918770B2, “Implants for localized drug delivery and methods of use thereof” (The Regents of the University of California, priority 2014, dated 2024).

Data set [1] can be described thus: Drug release from loaded Silastic tubing in culture media (LC-MS/MS). The class given is physicochemical. The following applies: for drug transfer from Silastic tubing: Silastic tubing depot approach. On the procedure: (§1) Each sealed (10 cm) tube was immersed into a 10 cm culture tube containing 5 mL culture media (Dulbecco's Modified Eagle's medium (DMEM)+10% fetal bovine serum (FBS)+penicillin and streptomycin) approximating interstitial tissue surrounding the breast tissue. These tubes were set on a rocker in an incubator at 37° C. for 1, 2, 5, 10, 15, 21 and 30 days. After each time point media was collected and stored at −80° C. for further analysis for western blotting, viability/proliferation assay by MTS (3-(4,5-dimethylthiazol-2-yl)-5-(3-carboxymethoxyphenyl)-2-(4-sulfophenyl)-2H-tetrazolium) and quantitation by liquid chromatography-tandem mass spectrometry (LC-MS/MS). Additional iteration was to perform repeated washes on the same sealed tube and collect the culture medium at days 1, 2, 5, 10, 15, 21, and 30.
(§2) A validated LC-MS/MS method was used for quantitation of fulvestrant. Sample was prepared by liquid-liquid extraction procedures with n-hexane-isopropanol (90:10, v/v). Extracts were concentrated (using a nitrogen stream at room temperature) and […] with 2 volumes of mobile phase buffer, and injected into a Sciex ultra performance liquid chromatorgraphy (UPLC) coupled with a Sciex API 5000™ triple quadrupole mass spectrometer. Data was acquired and analyzed by Analyst® MS software.
Media was harvested semi-weekly (84 hrs).

Data set [2] has as its system MCF7 ER-positive breast cancer cells. As to the kind of experiment: MTS viability/proliferation assay of MCF7 cells. The format is cell-based. On the procedure:
as §1
(§3) MCF-7 culture were propagated and seeded in 6 cm dishes at 300,000 cells per dish and allowed to adhere overnight as a monolayer. […] The drug concentrations and biological effects of the drug eluted from specific tubes were evaluated by Mass spectroscopy, Western Blot analysis and antiproliferative methods after exposure for 3 days.
At the end of the exposure, medium was replaced by MTS dye diluted (200 μL per well) in culture medium and incubated for up to 2 hours at 37° C. Optical density (490 nm) at the end of the time points (1, 1.5 and 2 hours) was measure and plotted as a ratio of absorbance (day/untreated).
Media containing tubing released drug at respective times was then added to cultured MCF7 ER-positive breast cancer cells and grown for 72 hours.
(§4) The medium was then used to culture MCF7 cells for 72 h, and the cells were assayed for proliferation by MTS assay (Panel A) and harvested for protein and western blotted for ER and PR expression (Panel B).

Data set [3] can be described thus: Visual examination of organs for overt pathology in implanted mice. The format is in vivo, CD-1 female mice. The following applies: Silastic depot with dry fulvestrant implanted subcutaneously, 9 week period. From the text:
(§5) Mice were monitored for body weight loss, activity, adequate grooming, and general behavior daily for the first week, followed by alternate days up to […]. Mice were euthanized and blood and organs were collected after 1, 2, 3, 4, 6 and 9 weeks (FIGS. 21 and 22).

The conditions of data set [4]: distribution coefficient between water and octanol; cited from earlier work.
Data set [5] in a line: Fulvestrant level in blood and mammary tissue of mice with Silastic implant. The following applies: 2 cm RX50 silastic tubing, 0.076 mg/cm dry fulvestrant, adjacent to inguinal mammary fat pad. The class given is in vivo, CD-1 female mice. On the procedure:
as §5
Blood from anaesthetized CD-1 female mice were collected in Vacutainer® tubes coated with K2 ethylenediaminetetraacetic acid (EDTA) via cardiac puncture. Plasma was separated by centrifugation at 6,000×g for 10 minutes and stored at −80° C. […] Harvested tissue was homogenized in saline on ice and then subjected to liquid-liquid phase extraction and evaluated for their levels of fulvestrant by LC-MS/MS as described above.
After the indicated number of weeks the mice were euthanized and tissue was harvested.

For data set [6] the following is noted: in 10% ethanol, 10% benzyl alcohol, 15% benzyl benzoate, and to 100% with castor oil (Faslodex®); cited from earlier work.
Data set [7] in a line: Drug release from loaded Silastic tubing in saline (LC-MS/MS). The format is physicochemical. On the procedure: Every 84 hours the saline was collected and replaced with fresh saline.
as §2
Every 84 hours, saline was collected and replaced with fresh saline. Fulvestrant was quantified in collected saline by liquid chromatography mass spectrometry.

The target of another data set is T1, estrogen receptor (ER) (Homo sapiens, UniProt P03372).
T1 sequence (P03372 1-595): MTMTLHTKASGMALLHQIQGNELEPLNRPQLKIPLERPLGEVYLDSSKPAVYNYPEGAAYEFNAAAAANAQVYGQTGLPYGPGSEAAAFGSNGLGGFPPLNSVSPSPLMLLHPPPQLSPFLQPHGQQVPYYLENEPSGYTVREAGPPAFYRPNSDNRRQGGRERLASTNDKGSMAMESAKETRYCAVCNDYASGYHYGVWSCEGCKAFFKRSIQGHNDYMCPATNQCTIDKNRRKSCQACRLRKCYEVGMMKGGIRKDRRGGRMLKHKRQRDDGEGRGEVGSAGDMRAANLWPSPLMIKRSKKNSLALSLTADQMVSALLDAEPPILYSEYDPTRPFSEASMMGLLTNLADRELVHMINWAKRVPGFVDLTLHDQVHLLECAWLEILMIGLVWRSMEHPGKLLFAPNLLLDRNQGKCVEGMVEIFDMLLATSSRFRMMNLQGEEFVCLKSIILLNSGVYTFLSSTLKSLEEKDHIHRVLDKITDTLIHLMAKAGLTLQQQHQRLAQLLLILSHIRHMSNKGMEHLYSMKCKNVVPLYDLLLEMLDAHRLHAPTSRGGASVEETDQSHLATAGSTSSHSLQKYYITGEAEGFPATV
Kind of data set: Western blot for ER and PR expression in MCF7 cells. The format is cell-based. On the procedure:
as §1, §3, §4
Background: In western blotting, separated proteins are transferred to a membrane and probed.

In data set [8] the test system is progesterone receptor (PgR) mRNA. As to the kind of experiment: Progesterone receptor mRNA by qRT-PCR in MCF7 cells treated with medium containing released E2. The class given is cell-based. To be noted: estradiol released from Silastic tubing into culture medium, MCF7 cells treated 24 hours. On the procedure:
The effect of estradiol released from Silastic® tubing loaded with estradiol and placed in culture medium was monitored, using conditions similar to that described in Example 2.
FIG. 23: Drug (E2) was loaded into 3 independent silastic tubes, dried, and sealed before incubating them in tissue culture medium for the indicated number of days. The tubes were then removed and MCF7 cells were treated with the medium. For the E2 experiment, MCF7 cells were first depleted of E2 by growing for 48 hours in FBS stripped media. Then, after 24 hours of treatment with media containing released E2, cells were harvested and progesterone receptor mRNA was quantified by quantitative real-time (qRT)-polymerase chain reaction (PCR) using TaqMan® probes from Applied Biosystems. As controls, MCF7 cells untreated and treated directly with 10 nM E2 were run.

The mark [9] stands for this setting: MCF7 cells treated directly with 100 nM fulvestrant (positive control).

Entries after “also recorded” stand apart in the source; their conditions may differ. Where only a bound is given, the exact number is not on record here.

Regarding 4-hydroxytamoxifen, in data set [1], the “drug transfer from Silastic tubing” value is given as “amenable to drug transfer”.
In the case of `C[C@]12CC[C@@H]3c4ccc(O)cc4C[C@@H](CCCCCCCCC[S+]([O-])CCCC(F)(F)C(F)(F)F)[C@H]3[C@@H]1CC[C@@H]2O` (stereo partly shown) [fulvestrant], the cell growth result in data set [2] (setting [9]) is “arrest cell growth”. The “tube equilibration time sufficient for growth inhibition and ER down regulation comparable to 100 nM fulvestrant” value in [2] (Silastic tubing 9 cm, 0.076 mg/cm dry fulvestrant, in culture media) lay in the range of 2 to 5 days. Besides, the antiproliferative effects result in data set [2] (fulvestrant added directly, concentration curves 10-50 nM and up to 10 μM, 72 hours) was “sufficient to block estrogen receptor signaling and proliferation”. The “growth inhibition and estrogen receptor down regulation” value in [2] (medium with fulvestrant released from Silastic tubing (0.076 mg/cm dry fulvestrant), MCF7 cells 72 h) was “comparable to cells directly treated with fulvestrant (100 nM); also recorded: sufficient to abrogate ER signaling and reduce cell proliferation”. The “overt pathology of organs (color, size, general condition)” value in [3] is on record as “none”. Also, in data set [4], the “log D” value was “around 8.47”. Besides, the “fulvestrant in mammary tissue” value in [5] (all mice) is on record as “significant fulvestrant was detectable”. In data set [5] (weeks 1-9, all but one mouse at week 4), this compound yielded a fulvestrant in blood of less than 4 nM. For the same compound, the solubility result in [6] is reported as “up to 50 mg/mL”. Moreover, the “duration of sustained release into culture medium” value in data set [1] (fulvestrant loaded Silastic tubing, media harvested semi-weekly (84 hrs), LC-MS/MS) is on record as “up to 22 weeks”. The “extrapolated duration of release” value in [7] (based on rate of release and amount of fulvestrant in the device) is “exceeds 10 years”. In addition, the “duration of steady release” value in data set [7] (saline, 37 C) was “exceeding 7 months”. Moreover, the “rate of fulvestrant released” value in data set [7] (saline, 37 C, after 5 weeks, average) was 7.77 ng/cm tubing*day. Moreover, the ER expression entry at estrogen receptor (ER) (setting [9]) is “sufficient to down regulate ER expression”. The “duration of consistent weekly fulvestrant release, as measured by ER and PR down regulation” value at estrogen receptor (ER) (weekly release from Silastic tubing, cell culture models) was “more than 4 weeks”.
Consider `O=C(c1ccc(OCCN2CCCCC2)cc1)c1c(-c2ccc(O)cc2)sc2cc(O)ccc12` [raloxifene], for which the “log D” value in data set [4] is given as “around 5.406”. In addition, in data set [1], the “drug transfer from Silastic tubing” value is recorded as “amenable to drug transfer”.
Take `C[C@]12CC[C@@H]3c4ccc(O)cc4CC[C@H]3[C@@H]1CC[C@@H]2O` [estradiol]: in data set [8], the “duration of sustained increase in progesterone receptor (PgR) mRNA expression” value is “up to 15 days”.
